# According to ChEMBL document CHEMBL5532754, “Discovery of aurones bearing two amine functionalities as SHIP2 inhibitors with insulin-sensitizing effect in rat myotubes” (RSC Med Chem, 2024):
# Where a name gives a salt, the structure may show the parent alone. Activity calls are given as the source filed them. The calls are words filed in the database; no cut-off is given here.
# How the values were obtained:
# L6 [1] = assay: Induction of glucose uptake in serum-starved rat L6 myotubes at 20 uM by luminescence based microplate reader analysis; type: functional, cell-based
# [2] = molecular target: T1, Phosphatidylinositol 3,4,5-trisphosphate 5-phosphatase 2 (Rattus norvegicus) (UniProt Q9WVR3); assay: Inhibition of SHIP2 in serum-starved rat L6 myotubes assessed as increase in phosphorylated Akt to total Akt level at 20 to 40 uM incubated for 24 hrs by ELISA; type: cell-based; conditions: dose 20-40 µM
# T1 sequence (whole entry): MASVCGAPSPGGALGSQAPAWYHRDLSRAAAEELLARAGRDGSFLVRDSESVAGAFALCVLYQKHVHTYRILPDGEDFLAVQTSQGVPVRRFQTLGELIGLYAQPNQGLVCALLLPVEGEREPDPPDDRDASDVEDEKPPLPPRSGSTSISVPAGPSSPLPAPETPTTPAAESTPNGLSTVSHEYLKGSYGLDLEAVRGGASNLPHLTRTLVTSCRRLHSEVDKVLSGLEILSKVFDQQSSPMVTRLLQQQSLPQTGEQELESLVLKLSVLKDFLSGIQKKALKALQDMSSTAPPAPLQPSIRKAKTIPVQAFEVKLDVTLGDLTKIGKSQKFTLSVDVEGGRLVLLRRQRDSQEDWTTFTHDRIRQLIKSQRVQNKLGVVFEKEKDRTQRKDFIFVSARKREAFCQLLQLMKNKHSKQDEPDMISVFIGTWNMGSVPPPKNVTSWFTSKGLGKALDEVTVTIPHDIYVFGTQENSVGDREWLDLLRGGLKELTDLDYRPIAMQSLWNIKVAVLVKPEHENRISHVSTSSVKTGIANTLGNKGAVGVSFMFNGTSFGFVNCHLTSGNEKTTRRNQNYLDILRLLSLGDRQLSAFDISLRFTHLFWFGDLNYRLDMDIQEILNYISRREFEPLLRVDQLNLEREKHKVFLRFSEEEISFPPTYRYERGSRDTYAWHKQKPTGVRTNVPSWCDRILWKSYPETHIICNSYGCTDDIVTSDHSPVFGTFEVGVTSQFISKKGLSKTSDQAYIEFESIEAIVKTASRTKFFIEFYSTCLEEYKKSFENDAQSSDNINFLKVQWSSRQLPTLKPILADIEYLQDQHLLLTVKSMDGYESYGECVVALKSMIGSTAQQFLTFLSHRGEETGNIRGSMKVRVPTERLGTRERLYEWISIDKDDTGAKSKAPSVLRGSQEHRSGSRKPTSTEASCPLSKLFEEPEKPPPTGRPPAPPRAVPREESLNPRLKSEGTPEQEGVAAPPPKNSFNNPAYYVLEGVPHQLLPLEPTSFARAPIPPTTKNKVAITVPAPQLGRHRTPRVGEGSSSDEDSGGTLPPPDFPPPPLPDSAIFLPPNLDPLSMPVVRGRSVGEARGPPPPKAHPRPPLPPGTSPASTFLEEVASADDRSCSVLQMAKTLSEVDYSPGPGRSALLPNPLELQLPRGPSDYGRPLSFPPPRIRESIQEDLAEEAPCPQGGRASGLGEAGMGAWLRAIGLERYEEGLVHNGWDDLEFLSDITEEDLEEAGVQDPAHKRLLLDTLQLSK
# [3] = Thiol (sulfhydryl) reactivity of compound assessed as change in absorbance at 200 uM at pH 7.4 aqueous buffer measured upto 24 hrs in presence of DTT; type: ADME; conditions: pH 7.4, 24 h
# [4] = Apparent permeability of the compound across apical to basolateral side in human Caco-2 cells at 30 uM incubated for 60 mins by LC analysis; type: ADME, cell-based
# [5] = Thiol (sulfhydryl) reactivity of compound assessed as change in absorbance at 200 uM at pH 7.4 aqueous buffer measured at 1 to 24 hrs in presence of DTT; type: ADME; conditions: pH 7.4, 200 µM, time 1-24 hrs
# L6 [6] = assay: Insulin sensitizing activity in rat L6 myotubes assessed as increase in glucose uptake by measuring fold change at 2 mM preincubated with compound for 18 hrs followed by insulin addition and measured after 15 mins by luminescence based microplate reader analysis; type: functional; conditions: time 18.25 hrs
# L6 [7] = assay: Induction of glucose uptake in serum-starved rat L6 myotubes at 2 mM by luminescence based microplate reader analysis; type: functional, cell-based
inhibition [2],Activity [3],"Papp A→B at 1 h, 30 µM [4] [×10⁻⁶ cm/s]",Activity [5],SMILES,Activity (L6 [1]),fold change (FC) (L6 [6]),Activity (L6 [7])
Active,Not Active,–,–,CN(C)CCCn1cc(/C=C2\Oc3cc(OCCN4CCCCC4)ccc3C2=O)c2ccccc21,inactive,–,–
–,–,–,Active,COC(=O)/C=C/C(=O)OC [DIMETHYL FUMARATE],–,–,–

# Second part, the compound before the results:
SMILES,inhibition [2],Activity [3],"Papp A→B at 1 h, 30 µM [4] [×10⁻⁶ cm/s]",Activity [5],Activity (L6 [1]),fold change (FC) (L6 [6]),Activity (L6 [7])
O=C1/C(=C/c2cn(CCN3CCOCC3)c3ccccc23)Oc2cc(OCCN3CCCCC3)ccc21,Active,Not Active,–,–,inactive,–,–
O=C1/C(=C/c2cn(CCN3CCCCC3)c3ccccc23)Oc2cc(OCCN3CCCCC3)ccc21,Active,Not Active,25.3,–,inactive,–,–
CN(C)C(=N)NC(=N)N [METFORMIN],–,–,–,–,–,1.6,inactive
